From patent US7595345B2, “Vitamin D receptor modulators” (Eli Lilly and Company, priority 2003, dated 2009)
“And” between values parts separate entries of the source, which are not always exact repeats. Equal entries are not always repeated.

Legend:
[1] = target: T1, RXR-VDR heterodimer (Gal4-RXR-DEF and VP16-VDR-LBD) (Homo sapiens, UniProt P11473); experiment: RXR-VDR heterodimerization assay (SaOS-2 cells); format: cell-based; settings: luciferase reporter pFR-LUC
T1 construct: Add the Gal4-RXR-DEF and VP16-VDR-LBD; expressed in transfected cells; host or cells: SaOs-2 cells
T1 sequence (P11473 127-423 limits assumed): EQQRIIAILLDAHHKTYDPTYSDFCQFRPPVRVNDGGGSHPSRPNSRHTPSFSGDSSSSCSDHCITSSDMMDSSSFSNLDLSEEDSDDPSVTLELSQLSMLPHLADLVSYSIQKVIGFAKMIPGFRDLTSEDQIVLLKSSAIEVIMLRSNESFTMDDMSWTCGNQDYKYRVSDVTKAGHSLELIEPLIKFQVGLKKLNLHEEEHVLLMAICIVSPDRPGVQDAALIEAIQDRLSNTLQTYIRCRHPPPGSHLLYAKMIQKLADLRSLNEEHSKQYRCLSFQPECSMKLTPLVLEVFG
T1 sequence (P19793 201-462 partner limits assumed): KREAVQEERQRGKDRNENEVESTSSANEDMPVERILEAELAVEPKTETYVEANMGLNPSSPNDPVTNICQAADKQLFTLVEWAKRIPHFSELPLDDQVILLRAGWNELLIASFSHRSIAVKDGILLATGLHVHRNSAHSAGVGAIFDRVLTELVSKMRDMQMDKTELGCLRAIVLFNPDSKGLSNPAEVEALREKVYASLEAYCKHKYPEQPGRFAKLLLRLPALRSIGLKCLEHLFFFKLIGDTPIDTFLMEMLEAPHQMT
Text: 1. The RXR-VDR Heterodimer Assay:
This assay provides the VDR activity of a test compound.
This is an in vitro efficacy assay for psoriasis, abscess and adhesion. Psoriasis involves both keratinocytes and immune cells. IL-10 is a unique cytokine because it is anti-inflammatory and immunosuppressive. This assay tells us whether a VDRM is able to function as an agonist in PBMCs (primary blood mononuclear cells) or not. […] 7. Other Compound Assay Standards An alternative measure of the efficacy of compounds of the invention for treatment of osteoporosis is a numerical ratio calculated as follows: • Dose Threshold needed to induce hypercalcemia • divided by • Dose Threshold needed for bone efficacy An alternative measure of the efficacy of compounds of the invention for treatment of psoriasis is a numerical ratio calculated as follows: • Dose Threshold needed to induce hypercalcemia • divided by • Dose Threshold needed to induce keratinocyte proliferation For the above ratios, Dose Thresholds are determined from dose response curve data. 8. The CaT1 (Calcium Transport Protein 1) Assay The CaT1 Assay is an indicator for the undesirable condition of hypercalcemia. […] Preferred assay results are greater than 1000 nM. Details of the Assay Methods: (1) Materials and Method for RXR-VDR Heterodimerization Assay: Transfection Method:
Grow SaOs-2 cells in T-152 cm^2 culture flasks in growth media.
Keep the density at 5-6×10^5 cells/ml
Passage cells 1:3 twice a week
Resuspend cells in plating media and transfer into growth media.
Transfection/Treatment Media:
D-MEM Low Glucose Without Phenol Red only
T-152 cm^2 culture flask:
Use well plate to plate cells
Use Deep well plate sterile to make up treatment media.
Luciferase Assay Reagent:
Use Steady-Glo Luciferase Reagent from Promega (Cat #E2550) Consists of:
a. E2533 Assay Substrate, lyophilized product and
Aspirate media from culture flask, rinse cells with HBSS and aspirate.
Add trypsin and incubate. […]
Read the plates after drug treatment […]
Count each well using a Luminescence counter, Top Count NXT by Packard […]

[2] = system: KERtr cells; experiment: Keratinocyte proliferation assay; format: cell-based; settings: Homo sapiens, 72 hr, BrdU incorporation, read-out: Kera. Prolif. IC50
Protocol: 5. The Keratinocyte Proliferation Assay
This Assay is indicative for the treatment of psoriasis.
(5) The Keratinocyte Proliferation Assay:
KERtr cells (Human skin keratinocyte transformed with a retrovirus vector, obtained from ATCC) were plated in 96-well flat-bottomed plates (3000 cells/well) in 100 µl keratinocyte serum free medium supplemented with bovine pituitary extract in the absence of EGF (Life Technologies, Rockville, Md.) and incubated at 37° C. for two days. The cells were treated with various concentrations of VDR ligands (ten-fold serial dilution from 10,000 nM to 0.1 nM in triplicate), dissolved in 100 µl keratinocyte serum free medium supplemented with bovine pituitary extract in the absence of EGF and incubated at 37° C. for 72 hr. BrdU (5-bromo-2′-deoxyuridine) incorporation was analyzed as a measure of DNA replication (Cell proliferation ELISA kit, Roche Diagnostics, Indianapolis, Ind.) and absorbance was measured at 405 nm. Potency values (IC50) values were determined as the concentration (nM) of compound that elicited a half-maximal response.

Compound | EC50 [1] | IC50 [2] [µM]
CCC(CC)(c1ccc(OCC(O)(C(C)C)C(C)C)c(C)c1)c1ccc(C(=O)NCC(=O)O)c(C)c1 [Ex. 4, (4-{1-Ethyl-1-[4-(2-hydroxy-2-isopropyl-3-methyl-butoxy)-3-methyl-phenyl]-propyl}-2-methyl-benzoylamino)-acetic acid] | 0.257 µM and 0.127 µM | 
CCC(O)(CC)COc1ccc(C(CC)(CC)c2ccc(C(=O)NCC(=O)O)c(C)c2)cc1C [Ex. 3, (4-{1-ethyl-1-[4-(2-ethyl-2-hydroxy-butoxy)-3-methyl-phenyl]-propyl}-2-methyl-benzoylamino)-acetic acid] | 0.301 µM and 0.149 µM | 0.121
